Results from patent US10550113B2, “2-phenyl-3H-imidazo[4,5-B]pyridine derivates useful as inhibitors of mammalian tyrosine kinase ROR1 activity” (Kancera AB, priority 2015, dated 2020).

Columns and labels:
[1] = CellTiter-Blue cell viability assay, cell toxicity in PBMC from healthy volunteers; format: cell-based; details: human, 50 000 cells/well, cultured 24, 48 and 72 h (time of the IC50 not stated), % cytotoxicity vs 0.2% DMSO
Protocol: (§1) Method for Measurement of Cell Toxicity
(§2) The CellTiter-Blue® Cell Viability Assay provides a homogeneous, fluorometric method for estimating the number of viable cells present in multi-well plates. The assay uses the indicator dye resazurin to measure the metabolic capacity of cells. Viable cells retain the ability to reduce resazurin into resorufin, which is highly fluorescent.
(§3) Stock solutions (10 or 100 mM in DMSO) of compounds were serially diluted 1:2 in 11 concentrations and 25 nL/well (100 mM stock) or 50 nL/well (10 mM stock) were acoustically dispensed in assay plates with an EDC acoustic dispenser. Final starting concentration in the assay was 20 μM (0.2% DMSO) or 100 μM (0.1% DMSO) for test compounds.
(§4) Peripheral blood mononuclear cells (PBMC) from CLL patients or healthy volunteers were seeded in assay plates (384-well black/clear, Greiner #781091) pre-dispensed with compounds, 25 μL/well, and cultured for 24, 48 and 72 h. The cell concentration was 50 000 cells/well for PBMC from CLL patients or healthy volunteers. After 24, 48 and 72 h culture, Celltiter Blue reagent was added (5 μL/well) and the plates were incubated for 2 h. The plates were read in an Envision fluorescence reader (PerkinElmer) with Ex544 nm/Em590 nm. Results were calculated as % cytotoxicity compared to background (cells treated with 0.2% DMSO).
(§5) Thus, IC50 values for cell toxicity in PBMC from CLL patients as well as healthy volunteers for some compounds of the invention are shown in Table 3.

PBMC from CLL patients = test: CellTiter-Blue cell viability assay, cell toxicity in PBMC from CLL patients; format: cell-based; details: Homo sapiens, 50 000 cells/well, cultured 24, 48 and 72 h (time of the IC50 not stated), % cytotoxicity vs 0.2% DMSO
Protocol: as §1, §2, §3, §4, §5

Structure (SMILES)	IC50 [1]	IC50 (PBMC from CLL patients)
CNC(=O)COc1ccc(-c2nc3c(NC4CCN(CCOc5ccccc5)CC4)c(Cl)cnc3[nH]2)cc1 [Example 96, 2-[4-(6-chloro-7-{[1-(2-phenoxyethyl)piperidin-4-yl]amino}-3H-imidazo[4,5-b]pyridin-2-yl)phenoxy]-N-methylacetamide]	13600 nM	310 nM
CC(=O)NCCOc1ccc(-c2nc3c(NC4CCN(C)CC4)c(Cl)cnc3[nH]2)cc1 [Example 265, N-[2-(4-{6-chloro-7-[(1-methylpiperidin-4-yl)amino]-3H-imidazo[4,5-b]pyridin-2-yl}phenoxy)ethyl] acetamide]	> 20000 nM	260 nM
CNC(=O)COc1ccc(-c2nc3c(NC4CCN(C)CC4)c(Br)cnc3[nH]2)c(C)c1 [Example 159, 2-(4-{6-bromo-7-[(1-methylpiperidin-4-yl)amino]-3H-imidazo[4,5-b]pyridin-2-yl}-3-methylphenoxy)-N-methylacetamide]	> 20000 nM	310 nM
CN(C)CCNC(=O)COc1ccc(-c2nc3c(NC4CCN(Cc5ccsc5)CC4)c(Cl)cnc3[nH]2)cc1 [Example 15, 2-[4-(6-chloro-7-{[1-(thiophen-3-ylmethyl)piperidin-4-yl]amino}-3H-imidazo[4,5-b]pyridin-2-yl)phenoxy]-N-[2-(dimethylamino)ethyl]acetamide]	13900 nM	790 nM
Cc1ccc(CN2CCC(Nc3c(Cl)cnc4[nH]c(-c5ccc(OCC(=O)NCC(C)(C)N(C)C)cc5)nc34)CC2)cc1 [Example 27, 2-[4-(6-chloro-7-{[1-(4-methylbenzyl)piperidin-4-yl]amino}-3H-imidazo[4,5-b]pyridin-2-yl)phenoxy]-N-[2-(dimethylamino)-2-methylpropyl]acetamide]	14100 nM	1420 nM
CNC(=O)COc1ccc(-c2nc3c(NC4CCN(Cc5c(C)nn(C)c5C)CC4)c(Br)cnc3[nH]2)cc1 [Example 288, 2-{4-[6-bromo-7-({1-[(1,3,5-trimethyl-1H-pyrazol-4-yl)methyl]piperidin-4-yl}amino)-3H-imidazo[4,5-b]pyridin-2-yl]phenoxy}-N-methylacetamide]	> 20000 nM	400 nM
CNC(=O)COc1ccc(-c2nc3c(NC4CCN(Cc5ccc(-n6cncn6)cc5)CC4)c(Cl)cnc3[nH]2)cc1 [Example 99, 2-{4-[6-chloro-7-({1-[4-(1H-1,2,4-triazol-1-yl)benzyl]piperidin-4-yl}amino)-3H-imidazo[4,5-b]pyridin-2-yl]phenoxy}-N-methylacetamide]	> 20000 nM	270 nM
CN1CCC(Nc2c(Cl)cnc3[nH]c(-c4ccc(OCCNC(=O)c5ccncc5)cc4)nc23)CC1 [Example 272, N-[2-(4-{6-chloro-7-[(1-methylpiperidin-4-yl)amino]-3H-imidazo[4,5-b]pyridin-2-yl}phenoxy)ethyl]pyridine-4-carboxamide]	> 20000 nM	250 nM
CNC(=O)COc1ccc(-c2nc3c(NC4CCN(Cc5ccc(NC(C)=O)cc5)CC4)c(Cl)cnc3[nH]2)cc1 [Example 75, 2-[4-(7-{[1-(4-acetamidobenzyl)piperidin-4-yl]amino}-6-chloro-3H-imidazo[4,5-b]pyridin-2-yl)phenoxy]-N-methylacetamide]	> 20000 nM	1120 nM
CNC(=O)COc1ccc(-c2nc3c(N[C@H]4CCN(Cc5ccc(OC)cc5)C4)c(Cl)cnc3[nH]2)cc1 [Example 43, 2-[4-(6-chloro-7-{[(3S)-1-(4-methoxybenzyl)pyrrolidin-3-yl]amino}-3H-imidazo[4,5-b]pyridin-2-yl)phenoxy]-N-methylacetamide]	> 20000 nM	1740 nM
CCN1CC[C@H](Nc2c(Cl)cnc3[nH]c(-c4ccc(OCC(=O)NC)cc4)nc23)C1 [Example 132, 2-[4-(6-chloro-7-{[(3S)-1-ethylpyrrolidin-3-yl]amino}-3H-imidazo[4,5-b]pyridin-2-yl)phenoxy]-N-methylacetamide]	> 20000 nM	860 nM
CNC(=O)COc1ccc(-c2nc3c(N[C@H]4CCN(Cc5ccc(F)c(F)c5)C4)c(Cl)cnc3[nH]2)cc1 [Example 34, 2-[4-(6-chloro-7-{[(3S)-1-(3,4-difluorobenzyl)pyrrolidin-3-yl]amino}-3H-imidazo[4,5-b]pyridin-2-yl)phenoxy]-N-methylacetamide]	17700 nM	3110 nM
CNC(=O)COc1ccc(-c2nc3c(NC4CCN(Cc5ccc(C)cc5)CC4)c(Cl)cnc3[nH]2)cc1 [Example 82, 2-[4-(6-chloro-7-{[1-(4-methylbeiizyl)piperidin-4-yl]amino}-3H-imidazo[4,5-b]pyridin-2-yl)phenoxy]-N-methylacetamide]	> 20000 nM	480 nM
CNC(=O)COc1ccc(-c2nc3c(NC4CCN(Cc5ccccc5)CC4)c(Cl)cnc3[nH]2)cc1 [Example 11, 2-(4-{7-[(1-benzylpiperidin-4-yl)amino]-6-chloro-3H-imidazo[4,5-b]pyridin-2-yl}phenoxy)-N-methylacetamide]	14800 nM	440 nM
CN1CCC(Nc2c(Cl)cnc3[nH]c(-c4ccc(OCC(=O)NCCC5CCOCC5)cc4)nc23)CC1 [Example 147, 2-(4-{6-chloro-7-[(1-methylpiperidin-4-yl)amino]-3H-imidazo[4,5-b]pyridin-2-yl}phenoxy)-N-[2-(tetrahydro-2H-pyran-4-yl)ethyl]acetamide]	> 20000 nM	140 nM
CNC(=O)CNc1ccc(-c2nc3c(NC4CCN(C)CC4)c(Cl)cnc3[nH]2)cc1 [Example 294, N^2-(4-(6-chloro-7-[(1-methylpiperidin-4-yl)amino]-3H-imidazo[4,5-b]pyridin-2-yl}phenyl)-N-methylglycinamide]	> 20000 nM	360 nM
CN(C)CCNC(=O)COc1ccc(-c2nc3c(NC4CCN(CCc5ccccc5)CC4)c(Cl)cnc3[nH]2)cc1 [Example 3, 2-[4-(6-chloro-7-{[1-(2-phenylethyl)piperidin-4-yl]amino}-3H-imidazo[4,5-b]pyridin-2-yl)phenoxy]-N-[2-(dimethylamino)ethyl]acetamide]	9900 nM	1200 nM
CNC(=O)COc1ccc(-c2nc3c(NC4CCN(C5CCCCC5)CC4)c(Cl)cnc3[nH]2)cc1 [Example 56, 2-(4-{6-chloro-7-[(1-cyclohexylpiperidin-4-yl)amino]-3H-imidazo[4,5-b]pyridin-2-yl}phenoxy)-N-methylacetamide]	> 20000 nM	370 nM
CNC(=O)CCNc1ccc(-c2nc3c(NC4CCN(C)CC4)c(Cl)cnc3[nH]2)cc1 [Example 302, N^3-(4-{6-chloro-7-[(1-methylpiperidin-4-yl)amino]-3H-imidazo[4,5-b]pyridin-2-yl}phenyl)-N-methyl-b-alaninamide]	> 20000 nM	620 nM
CNC(=O)COc1ccc(-c2nc3c(NC4CCN(Cc5ccncc5)CC4)c(Cl)cnc3[nH]2)cc1 [Example 71, 2-[4-(6-chloro-7-{[1-(pyridin-4-ylmethyl)piperidin-4-yl]amino}-3H-imidazo[4,5-b]pyridin-2-yl)phenoxy]-N-methylacetamide]	> 20000 nM	1900 nM
CNC(=O)Cc1ccc(-c2nc3c(NC4CCN(C)CC4)c(Cl)cnc3[nH]2)cc1 [Example 232, 2-(4-{6-chloro-7-[(1-methylpiperidin-4-yl)amino]-3H-imidazo[4,5-b]pyridin-2-yl}phenyl)-N-methylacetamide]	> 20000 nM	570 nM
CN1CCC(Nc2c(Br)cnc3[nH]c(-c4ccc(OCC(=O)NC5CCCC5)cc4)nc23)CC1 [Example 259, 2-(4-{6-bromo-7-[(1-methylpiperidin-4-yl)amino]-3H-imidazo[4,5-b]pyridin-2-yl}phenoxy)-N-cyclopentylacetamide]	11100 nM	33 nM
CNC(=O)COc1cccc(-c2nc3c(NC4CCN(C)CC4)c(Cl)cnc3[nH]2)c1 [Example 117, 2-(3-{6-chloro-7-[(1-methylpiperidin-4-yl)amino]-3H-imidazo[4,5-b]pyridin-2-yl}phenoxy)-N-methylacetamide]	> 20000 nM	320 nM
CNC(=O)COc1ccc(-c2nc3c(N(C)C4CCN(Cc5ccccc5)CC4)c(Cl)cnc3[nH]2)cc1 [Example 19, 2-(4-{7-[(1-benzylpiperidin-4-yl)(methyl)amino]-6-chloro-3H-imidazo[4,5-b]pyridin-2-yl}phenoxy)-N-methylacetamide]	> 20000 nM	3230 nM
CN(C)CCNC(=O)COc1ccc(-c2nc3c(N[C@H]4CCN(Cc5ccccc5)C4)c(Cl)cnc3[nH]2)cc1 [Example 2, 2-[4-(7-{[(3S)-1-benzylpyrrolidin-3-yl]amino}-6-chloro-3H-imidazo[4,5-b]pyridin-2-yl)phenoxy]-N-[2-(dimethylamino)ethyl]acetamide]	13800 nM	1300 nM
CNC(=O)COc1ccc(-c2nc3c(NC4CCN(C)CC4)c(Br)cnc3[nH]2)cc1F [Example 184, 2-(4-{6-bromo-7-[(1-methylpiperidin-4-yl)amino]-3H-imidazo[4,5-b]pyridin-2-yl}-2-fluorophenoxy)-N-methylacetamide]	> 20000 nM	110 nM
